Results taken from paper PMC11085442 (Molecules, 2024).

Key:
[1] = system: LPS-stimulated RAW264.7 cell lines; experiment: LPS-induced NO production (Griess) in RAW264.7; assay type: cell-based, murine; conditions: for The production of NO / inhibition at 10 µM: LPS-stimulated RAW264.7; for The production of NO: LPS group 49.86 ± 0.62, control 1.20 ± 0.38; for inhibitory activity against NO production compared with curcumin: 10 μM; for inhibition at 10 µM: Mus musculus, read-out: inhibition rate (anti-inflammatory activity)
Procedure: RAW 264.7 cells were plated in 96-well plates at a density of 1 × 10^4 cells/well and incubated overnight at 37 °C under 5% CO2. […] Dexamethasone (Solarbio, D8040, Beijing, China) was used as the positive control. Then, 24 h later, NO production was determined by measuring the nitrite content using Griess reagents. Fifty microliters of culture supernatants were transferred to 96-well plates and mixed with 50 μL Griess reagent A. After incubation at room temperature for 5 min, the samples were mixed with an equal volume Griess reagent B for another 5 min. The absorbance of each mixture at 540 nm was measured using a microplate reader.

[2] = system: H2O2-stimulated PC 12 cell lines; experiment: Protection against H2O2-induced oxidative damage (CCK-8); assay type: cell-based, rat; conditions: for viability at 5 µM / viability at 10 µM / viability at 20 µM: Rattus norvegicus; for viability at 5 µM: PC-12, Dose 5 μM; for viability at 5 µM / viability at 10 µM / viability at 20 µM / Cell viability: H2O2-induced oxidative damage, PC 12, H2O2 group 49.69 ± 1.37, control 100; for viability at 10 µM: PC-12, Dose 10 μM; for viability at 20 µM: PC-12, Dose 20 μM; for Cell viability: in % (unit assumed)
Procedure: PC 12 cells were seeded in 96-well plates at a density of 8000 cells/well and incubated overnight. […] After incubating under the same conditions for 24 h, 10 μL CCK-8 solution was added to each well. After 2 h incubation, the absorbance of each well was measured at 450 nm using a microplated reader (Multiskan MK-3, Thermo, Waltham, MA, USA).

PC 12 cell lines = experiment: Radiation protection in vitro (CCK-8); assay type: cell-based, rat; conditions: for Cell viability / viability at 5 µM / viability at 10 µM / viability at 20 µM: radiation 8.0 Gy, PC 12, radiation group 50.22 ± 1.08; for Cell viability: in % (unit assumed); for radiation protection capability compared with curcumin / radiation protection capacity: 10 μM; for radiation protection capability compared with curcumin: irradiated PC 12; for radiation protection capacity: versus radiation group; for viability at 5 µM / viability at 10 µM / viability at 20 µM: Rattus norvegicus; for viability at 5 µM: PC-12, Dose 5 μM; for viability at 10 µM: PC-12, Dose 10 μM; for viability at 20 µM: PC-12, Dose 20 μM
Procedure: The rat adrenal pheochromocytoma cells (PC 12) were used for in vitro studies. A Cell Counting Kit-8 (CCK-8, Applygen Technologies Co., Ltd., Beijing, China) assay was used to determine cell viability. […] Cells were irradiated with dose of 8.0 Gy at a dose rate of 0.8 Gy/min. Then, 10 μL CCK-8 solution was added to all the wells. After 4 h incubation, the absorbance at 450 nm of each well was measured in a multiscan photometer.

COc1cc(/C=C/C(=O)CC(=O)/C=C/c2cc(OC)c(O)c(OC)c2)cc(CN(C)C)c1O [Compound 2]
The production of NO ([1]; Dose 5 μM): 43.78 ± 1.52
The production of NO ([1]; Dose 10 μM): 42.04 ± 1.70
The production of NO ([1]; Dose 15 μM): 36.99 ± 1.85
viability at 5 µM [2]: 55.7 ± 0.79%
viability at 10 µM [2]: 58.2 ± 0.8%
viability at 20 µM [2]: 63.4 ± 1.13%
Cell viability (PC 12 cell lines; Dose 5 μM): 50.96 ± 1.31
Cell viability (PC 12 cell lines; Dose 10 μM): 52.89 ± 2.05
Cell viability (PC 12 cell lines; Dose 20 μM): 54.68 ± 1.78

COc1cc(/C=C/C(=O)CC(=O)/C=C/c2ccc(O)cc2C)cc(CN(C)C)c1O [Compound 3]
The production of NO ([1]; Dose 5 μM): 39.26 ± 2.12
The production of NO ([1]; Dose 10 μM): 30.62 ± 1.71
The production of NO ([1]; Dose 15 μM): 10.36 ± 3.69
viability at 5 µM [2]: 64.7 ± 2.69%
viability at 10 µM [2]: 71.7 ± 3.77%
viability at 20 µM [2]: 81.7 ± 2.41%
Cell viability (PC 12 cell lines; Dose 5 μM): 49.57 ± 2.70
Cell viability (PC 12 cell lines; Dose 10 μM): 51.85 ± 2.04
Cell viability (PC 12 cell lines; Dose 20 μM): 57.44 ± 1.80

COc1cc(/C=C/C(=O)CC(=O)/C=C/c2ccc(O)cc2F)cc(CN(C)C)c1O [Compound 4]
The production of NO ([1]; Dose 5 μM): 40.64 ± 1.28
The production of NO ([1]; Dose 10 μM): 29.91 ± 1.78
The production of NO ([1]; Dose 15 μM): 10.48 ± 0.47
viability at 5 µM [2]: 61.7 ± 2.59%
viability at 10 µM [2]: 71 ± 2.33%
viability at 20 µM [2]: 84.7 ± 2.76%
Cell viability (PC 12 cell lines; Dose 5 μM): 49.46 ± 1.97
Cell viability (PC 12 cell lines; Dose 10 μM): 51.75 ± 0.40
Cell viability (PC 12 cell lines; Dose 20 μM): 59.56 ± 0.59

COc1cc(/C=C/C(=O)CC(=O)/C=C/c2ccc(OC)c(OC)c2OC)cc(CN(C)C)c1O [Compound 6]
inhibitory activity against NO production compared with curcumin [1]: better inhibitory activity
The production of NO ([1]; Dose 5 μM): 27.16 ± 2.73
The production of NO ([1]; Dose 10 μM): 14.67 ± 3.66
The production of NO ([1]; Dose 15 μM): 5.95 ± 0.13
viability at 5 µM [2]: 56.6 ± 1.66%
viability at 10 µM [2]: 67.8 ± 1.91%
viability at 20 µM [2]: 94.89 ± 0.58%
radiation protection capability compared with curcumin (PC 12 cell lines): better radiation protection capability
radiation protection capacity (PC 12 cell lines): a certain degree of radiation protection capacity
Cell viability (PC 12 cell lines; Dose 5 μM): 58.25 ± 1.05
Cell viability (PC 12 cell lines; Dose 10 μM): 62.18 ± 1.03
Cell viability (PC 12 cell lines; Dose 20 μM): 83.08 ± 6.65

COc1cc(/C=C/C(=O)CC(=O)/C=C/c2ccc(O)c(Cl)c2)cc(CN(C)C)c1O [Compound 7]
The production of NO ([1]; Dose 5 μM): 35.15 ± 2.72
The production of NO ([1]; Dose 10 μM): 18.46 ± 2.34
The production of NO ([1]; Dose 15 μM): 10.47 ± 1.32
viability at 5 µM [2]: 54.4 ± 1.18%
viability at 10 µM [2]: 61.9 ± 1.29%
viability at 20 µM [2]: 78.2 ± 1.43%
Cell viability (PC 12 cell lines; Dose 5 μM): 61.54 ± 2.47
Cell viability (PC 12 cell lines; Dose 10 μM): 63.26 ± 3.00
Cell viability (PC 12 cell lines; Dose 20 μM): 69.98 ± 4.31

COc1cc(/C=C/C(=O)CC(=O)/C=C/c2cc(C)c(O)c(C)c2)cc(CN(C)C)c1O [Compound 8]
The production of NO ([1]; Dose 5 μM): 42.90 ± 0.85
The production of NO ([1]; Dose 10 μM): 20.21 ± 1.82
The production of NO ([1]; Dose 15 μM): 5.46 ± 0.34
viability at 5 µM [2]: 64.6 ± 1.64%
viability at 10 µM [2]: 67.8 ± 2.26%
viability at 20 µM [2]: 81.7 ± 3.21%
radiation protection capacity (PC 12 cell lines): a certain degree of radiation protection capacity
Cell viability (PC 12 cell lines; Dose 5 μM): 53.58 ± 0.78
Cell viability (PC 12 cell lines; Dose 10 μM): 55.23 ± 1.26
Cell viability (PC 12 cell lines; Dose 20 μM): 78.50 ± 2.59

COc1cc(O)ccc1/C=C/C(=O)CC(=O)/C=C/c1cc(CN(C)C)c(O)c(OC)c1 [Compound 9]
The production of NO ([1]; Dose 5 μM): 42.38 ± 2.73
The production of NO ([1]; Dose 10 μM): 29.76 ± 1.48
The production of NO ([1]; Dose 15 μM): 19.69 ± 0.78
inhibition at 10 µM [1]: 41%
viability at 5 µM [2]: 53.22 ± 0.26%
viability at 10 µM [2]: 58.53 ± 0.46%
viability at 20 µM [2]: 66.1 ± 1.09%
Cell viability (PC 12 cell lines; Dose 5 μM): 56.32 ± 1.77
Cell viability (PC 12 cell lines; Dose 10 μM): 59.94 ± 1.26
Cell viability (PC 12 cell lines; Dose 20 μM): 65.00 ± 1.84

COc1cc(/C=C/C(=O)CC(=O)/C=C/c2ccc(O)cc2)cc(CN(C)C)c1O [Compound 10]
inhibitory activity against NO production compared with curcumin [1]: better inhibitory activity
The production of NO ([1]; Dose 5 μM): 36.66 ± 2.00
The production of NO ([1]; Dose 10 μM): 15.36 ± 2.09
The production of NO ([1]; Dose 15 μM): 4.91 ± 0.77
inhibition at 10 µM [1]: 71%
Cell viability ([2]; Dose 5 μM): 53.53 ± 2.28
Cell viability ([2]; Dose 10 μM): 58.20 ± 1.24
Cell viability ([2]; Dose 20 μM): 77.80 ± 2.65
viability at 5 µM (PC 12 cell lines): 58.4 ± 1.95%
viability at 10 µM (PC 12 cell lines): 63.9 ± 2.22%
viability at 20 µM (PC 12 cell lines): 79.3 ± 3.13%

COc1cc(/C=C/C(=O)CC(=O)/C=C/c2cc(C)c(O)cc2C)cc(CN(C)C)c1O [Compound 12]
inhibitory activity against NO production compared with curcumin [1]: better inhibitory activity
The production of NO ([1]; Dose 5 μM): 32.06 ± 0.58
The production of NO ([1]; Dose 10 μM): 15.78 ± 0.50
The production of NO ([1]; Dose 15 μM): 11.39 ± 1.00
Cell viability ([2]; Dose 5 μM): 60.69 ± 1.53
Cell viability ([2]; Dose 10 μM): 70.31 ± 1.65
Cell viability ([2]; Dose 20 μM): 79.23 ± 1.18
radiation protection capacity (PC 12 cell lines): a certain degree of radiation protection capacity
viability at 5 µM (PC 12 cell lines): 56.6 ± 1.03%
viability at 10 µM (PC 12 cell lines): 63.1 ± 1.52%
viability at 20 µM (PC 12 cell lines): 76.8 ± 1.27%

COc1cc(/C=C/C(=O)CC(=O)/C=C/c2c(C)cc(O)cc2C)cc(CN(C)C)c1O [Compound 13]
The production of NO ([1]; Dose 5 μM): 26.57 ± 1.74
The production of NO ([1]; Dose 10 μM): 21.53 ± 0.35
The production of NO ([1]; Dose 15 μM): 10.02 ± 0.61
Cell viability ([2]; Dose 5 μM): 62.94 ± 0.50
Cell viability ([2]; Dose 10 μM): 69.55 ± 1.06
Cell viability ([2]; Dose 20 μM): 80.61 ± 0.83
viability at 5 µM (PC 12 cell lines): 61.4 ± 1.58%
viability at 10 µM (PC 12 cell lines): 67.8 ± 2.32%
viability at 20 µM (PC 12 cell lines): 87.38 ± 0.6%

COc1cc(/C=C/C(=O)CC(=O)/C=C/c2c(OC)cc(O)cc2OC)cc(CN(C)C)c1O [Compound 14]
The production of NO ([1]; Dose 5 μM): 27.84 ± 1.41
The production of NO ([1]; Dose 10 μM): 22.09 ± 0.55
The production of NO ([1]; Dose 15 μM): 9.39 ± 0.34
Cell viability ([2]; Dose 5 μM): 59.32 ± 2.89
Cell viability ([2]; Dose 10 μM): 65.73 ± 2.40
Cell viability ([2]; Dose 20 μM): 74.30 ± 1.25
viability at 5 µM (PC 12 cell lines): 53.08 ± 0.34%
viability at 10 µM (PC 12 cell lines): 54.4 ± 0.72%
viability at 20 µM (PC 12 cell lines): 63.5 ± 1.49%

COc1cc(/C=C/C(=O)CC(=O)/C=C/c2cc(CN(C)C)c(O)c(OC)c2)ccc1O [Compound 15]
The production of NO ([1]; Dose 5 μM): 41.85 ± 1.07
The production of NO ([1]; Dose 10 μM): 28.31 ± 0.33
The production of NO ([1]; Dose 15 μM): 14.00 ± 0.92
inhibition at 10 µM [1]: 44%
anti-oxidant capacity compared with curcumin ([2]; 10 μM, H2O2-stimulated PC 12): no statistical difference
Cell viability ([2]; Dose 5 μM): 60.18 ± 1.41
Cell viability ([2]; Dose 10 μM): 71.98 ± 3.71
Cell viability ([2]; Dose 20 μM): 87.82 ± 1.77
radiation protection capability compared with curcumin (PC 12 cell lines): no statistical difference
viability at 5 µM (PC 12 cell lines): 58.6 ± 0.61%
viability at 10 µM (PC 12 cell lines): 63.45 ± 0.21%
viability at 20 µM (PC 12 cell lines): 77 ± 1.23%
